From patent publication US20200289554A1, “BIOORTHOGONAL COMPOUNDS COMPRISING A PROPARGYL GROUP FOR TREATING CANCER” (THE UNIVERSITY COURT OF THE UNIVERSITY OF EDINBURGH, priority 2016, published 2020)
Like-named read-outs stand apart in the source and are kept apart here.

How the values were obtained:
U87G cells = assay: Prodrug safety dose-response cell viability (PrestoBlue), U87G; assay type: cell-based, human; conditions: U87G cells, 5 days, no catalyst, read-out: EC50 (cell viability)
Protocol: (§1) These cell lines were selected as these are primary malignancies against which the parental drugs are currently prescribed.
(§2) The toxicities of each active agent and prodrugs were compared by performing dose-response studies. […] Cell viability was analysed by fluoresce intensity (λex=540 nm; λem=590 nm) after 60-90 min incubation with PrestoBlue™ Reagent (Life Technologies).

T98 cells [1] = assay: Prodrug safety dose-response cell viability (PrestoBlue), T98; assay type: cell-based; conditions: Homo sapiens, 120 h, 5 days, no catalyst
Protocol: as §1, §2

A549 cells [2] = assay: Prodrug safety dose-response cell viability (PrestoBlue), A549; assay type: cell-based; conditions: Homo sapiens, 120 h, 5 days, no catalyst
Protocol: as §1, §2

A549 cells [3] = assay: BOOM conversion: prodrug + metal resins in cell culture, cell viability, A549; assay type: cell-based, human; conditions: Pd0-resin 1 mg/mL, 100 μM Vorinostat prodrugs, 1 μM Doxorubicin prodrugs, 0.3 μM Panobinostat prodrug
Protocol: Cell viabilities for each prodrug provided as a combination with palladium is presented in FIG. 3 and gold is presented in FIG. 33 in the right of each set of two bars. […] Cells were incubated in tissue culture media containing 0.1% (v/v) DMSO and: Pd^0, Au, or Pd/Au-resins (1 mg/mL, negative control); 100 μM of each prodrug (negative control); and Pd^0, Au, or Pd/Au-resins (1 mg/mL)+100 μM of each prodrug (BOOM reaction assay). Cells incubated in 0.1% (v/v) DMSO in media were used as untreated cell control.
(§3) Following 5 days treatment, cells were incubated with PrestoBlue™ Cell Viability Reagent (Life Technologies) for 60-90 min. Fluorescence intensity values were related to the untreated cells (100% cell viability). […] Cells incubated in 0.1% (v/v) DMSO in media were used as untreated cell control.
(§4) Cell viabilities for each prodrug provided as a combination with palladium is presented in FIG. 7 in the right of each set of two bars. Data for prodrug in the absence of palladium catalyst is also provided (the left bar of each set of two bars) for comparison along with negative controls (from left to right: DMSO, Pd^0 and Doxorubicin). Cells were incubated in tissue culture media containing 0.1% (v/v) DMSO and: Pd^0-resins (1 mg/mL, negative control); 1 μM of each prodrug (negative control); and Pd^0-resins (1 mg/mL)+1 μM of each prodrug (BOOM reaction assay). Cells incubated in 0.1% (v/v) DMSO in media were used as untreated cell control.
(§5) Following 5 days treatment, cells were incubated with PrestoBlue™ Cell Viability Reagent (Life Technologies) for 90 min. Fluorescence intensity values were related to the untreated cells (100% cell viability). Data are provided in FIG. 8 for cells incubated in tissue culture media containing 0.1% (v/v) DMSO and: Pd^0-resins (1 mg/mL, negative control); 0.3-3 μM of Doxorubicin prodrug for A549 and DU145 cell lines, 0.1-1 μM of Doxorubicin prodrug for T98 cell line (negative control); 0.3-3 μM of Doxorubicin for A549 and DU145 cell lines, 0.1-1 μM of Doxorubicin for T98 cell line (positive control); and Pd^0-resin (1 mg/mL)+Doxorubicin prodrug (BOOM reaction assay). Cells incubated in 0.1% (v/v) DMSO in media were used as untreated cell control.
as §4, with “21” for “7”, “panobinostat).” for “Doxorubicin).”
(§6) The toxigenic effect as a result of in situ generation of parental drug in cell culture was determined by incubating all cells in tissue culture media containing 0.1% (v/v) DMSO and a) Pd^0, Au, or Pd/Au-resin (1 mg/mL for all cells tested, negative control); b) prodrug (negative control); or c) Pd^0, Au, or Pd/Au-resin (1 mg/mL for all cells)+prodrug (reaction assay). Cells incubated in 0.1% (v/v) DMSO in media was used as an untreated cell reference standard (100% viability). A PrestoBlue® cell viability assay as described above was carried out and fluorescent intensities compared to the untreated cell control.
(§7) A dose response study was performed for each cell line keeping the quantity of Pd^0 resin constant (0.8 mg/mL for U87G and 1 mg/mL for the rest of cell lines). All cells were plated in Dulbecco's Modified Eagle Media (DMEM) supplemented with serum (10% FBS) and L-glutamine (2 mM). […]

T98 cells [4] = assay: BOOM conversion: prodrug + Pd0-resins in cell culture, cell viability, T98; assay type: cell-based, human; conditions: Pd0-resin 1 mg/mL, 1 μM Doxorubicin prodrugs
Protocol: as §3, §4, §5, §6, §7

DU145 cells = assay: BOOM conversion: prodrug + Pd0-resins in cell culture, cell viability, DU145; assay type: cell-based, human; conditions: Pd0-resin 1 mg/mL, 1 μM Doxorubicin prodrugs
Protocol: as §4
as §5, with “Cells incubated in 0.1% (v/v) DMSO in media were used as untreated cell control.” left out
(§8) The toxigenic effect as a result of in situ generation of parental drug in cell culture was determined by incubating all cells in tissue culture media containing 0.1% (v/v) DMSO and a) Pd^0, Au, or Pd/Au-resin (1 mg/mL for all cells tested, negative control); b) prodrug (negative control); or c) Pd^0, Au, or Pd/Au-resin (1 mg/mL for all cells)+prodrug (reaction assay). […]
(§9) A dose response study was performed for each cell line keeping the quantity of Pd^0 resin constant (0.8 mg/mL for U87G and 1 mg/mL for the rest of cell lines). […] Fluorescence intensity values (detected using a PerkinElmer EnVision 2101 multilabel reader with excitation filter at 540 nm and emissions filter at 590 nm) were determined relative to the untreated cell control.

MiaPaCa2 cells [5] = assay: BOOM conversion: prodrug + Pd0-resins in cell culture, cell viability, MiaPaCa2; assay type: cell-based, human; conditions: Pd0-resin 1 mg/mL, 0.03 μM Gemcitabine prodrugs
Protocol: as §4, with “FIG. 10” for “FIG. 7”, “and Gemcitabine).” for “and Doxorubicin).”, “control); 0.03” for “control); 1”, “(1 mg/mL)+0.03” for “(1 mg/mL)+1”
Following 5 days treatment, cells were incubated with PrestoBlue™ Cell Viability Reagent (Life Technologies) for 90 min. Fluorescence intensity values were related to the untreated cells (100% cell viability). Data are provided in FIG. 11 for cells incubated in tissue culture media containing 0.1% (v/v) DMSO and: Pd^0-resins (1 mg/mL, negative control); 0.003-0.3 μM of pPOBC-Gem (negative control); 0.003-0.3 μM of Gemcitabine (positive control); and Pd^0-resin (1 mg/mL)+pPOBC-Gem (BOOM reaction assay). Cells incubated in 0.1% (v/v) DMSO in media were used as untreated cell control.
as §8, with “assay). Cells incubated in 0.1% (v/v) DMSO in media was used as an untreated cell reference standard (100% viability).” for “assay).”
as §9

MiaPaCa2 cells [6] = assay: Prodrug safety dose-response cell viability (PrestoBlue), MiaPaCa2; assay type: cell-based, human; conditions: Homo sapiens, MIA PaCa-2, 120 h, 5 days, no catalyst
Protocol: as §1, §2

## O=C(CCCCCCC(=O)Nc1ccccc1)NOCc1ccccc1 [Benzyl-Vor, Benzyl-Vorinostat]
U87G cells; Homo sapiens, 120 h
  EC50: > 500 µM
T98 cells [1]
  EC50: > 500 µM
A549 cells [2]
  EC50: > 500 µM
A549 cells [3]
  toxigenic effect of prodrug + Pd0 resins: only low levels of toxicity

## COc1cccc2c1C(=O)c1c(O)c3c(c(O)c1C2=O)C[C@@](O)(C(=O)CO)C[C@@H]3OC1C[C@H](NC(=O)OCc2ccccc2)[C@H](O)[C@H](C)O1 (stereo partly shown) [Cbz-Dox, Carboxybenzyl Doxorubicin]
T98 cells [4]
  toxigenic effect of prodrug + Pd0 resins: only low levels of toxicity
DU145 cells
  toxigenic effect of prodrug + Pd0 resins: only low levels of toxicity
A549 cells [3]
  toxigenic effect of prodrug + Pd0 resins: only low levels of toxicity

## O=C(Nc1ccn(C2OC(CO)C(O)C2(F)F)c(=O)n1)OCc1ccccc1 (stereo not shown) [Cbz-Gem, reference compound]
MiaPaCa2 cells [5]
  toxigenic effect of prodrug + Pd0 resins: only low levels of toxicity

## COc1cc([C@@H]2c3cc4c(cc3[C@@H](O[C@@H]3O[C@@H]5CO[C@@H](C)O[C@H]5[C@H](O)[C@H]3O)[C@H]3COC(=O)[C@H]23)OCO4)cc(OC)c1O [Etoposide, reference compound]
U87G cells; Homo sapiens, 120 h
  EC50: 4.97 µM

## Nc1ccn([C@@H]2O[C@H](CO)[C@@H](O)C2(F)F)c(=O)n1 [Gemcitabine, reference compound]
MiaPaCa2 cells [6]
  EC50: 0.013 µM

## C#CCOc1ccc(CONC(=O)/C=C/c2ccc(CNCCc3c(C)[nH]c4ccccc34)cc2)cc1 [POB-Panob, Propargyloxybenzyl-Panobinostat]
A549 cells [2]
  EC50: 0.758 µM
A549 cells [3]
  toxigenic effect of prodrug + Pd0 resins: strong toxigenic effect

## Cc1[nH]c2ccccc2c1CCNCc1ccc(/C=C/C(=O)NO)cc1 [Panobinostat, reference compound]
A549 cells [2]
  EC50: 0.016 µM

## CCc1c2c(nc3ccc(O)cc13)-c1cc3c(c(=O)n1C2)COC(=O)[C@]3(O)CC [SN-38, 10-Hydroxy-7-ethylcamptothecin, reference compound]
U87G cells
  EC50: 0.0246 µM

## O=C(CCCCCCC(=O)Nc1ccccc1)NO [Vorinostat, reference compound]
T98 cells [1]
  EC50: 12.4 µM
A549 cells [2]
  EC50: 4.85 µM

## C#CCOc1ccccc1COC(=O)N[C@H]1CC(O[C@H]2C[C@](O)(C(=O)CO)Cc3c(O)c4c(c(O)c32)C(=O)c2c(OC)cccc2C4=O)O[C@@H](C)[C@H]1O (stereo partly shown) [oPOBC-Dox, 2-proparglyoxybenzylcarbamoyl Doxorubicin]
T98 cells [4]
  toxigenic effect of prodrug + Pd0 resins: strong toxigenic effect
DU145 cells
  toxigenic effect of prodrug + Pd0 resins: strong toxigenic effect
A549 cells [3]
  toxigenic effect of prodrug + Pd0 resins: strong toxigenic effect

## C#CCOc1ccc(COC(=O)N[C@H]2CC(O[C@H]3C[C@](O)(C(=O)CO)Cc4c(O)c5c(c(O)c43)C(=O)c3c(OC)cccc3C5=O)O[C@@H](C)[C@H]2O)cc1 (stereo partly shown) [pPOBC-Dox, 4-proparglyoxybenzylcarbamoyl Doxorubicin]
T98 cells [4]
  toxigenic effect of prodrug + Pd0 resins: strong toxigenic effect
DU145 cells
  toxigenic effect of prodrug + Pd0 resins: strong toxigenic effect
A549 cells [3]
  toxigenic effect of prodrug + Pd0 resins: strong toxigenic effect
